Results from publication PMC9968098, “Towards Arginase Inhibition: Hybrid SAR Protocol for Property Mapping of Chlorinated N-arylcinnamamides” (International Journal of Molecular Sciences, 2023).
Like-named read-outs stand apart in the source and are kept apart here.

Columns and labels:
[1] = test system: human monocytic leukemia cell line THP-1; parameters: method as in PMID 35328580; conditions: cell viability, THP-1 cells, n = 3; cited from earlier work
[2] = parameters: method as in PMID 35328580; conditions: experimentally determined lipophilicity, RP-HPLC; cited from earlier work
[3] = test system: P. falciparum 3D7/MRA-102; assay: In vitro antiplasmodial activity (parasite growth, 48 h); assay type: cell-based; conditions: Plasmodium falciparum, read-out: Pf IC50 ± SD
Description: The following reagent was obtained through BEI Resources, NIAID, NIH: Plasmodium falciparum, strain 3D7, MRA-102, contributed by Daniel J. Carucci. Based on a modified procedure by Trager and Jensen, asexual erythrocytic stages of Pf were continuously maintained through in vitro culture. The chloroquine-sensitive strain is cultured thanks to human red blood cells (A+) and a culture medium mainly composed of RPMI 1640 (Gibco, Fisher Scientific, Loughborough, UK) containing NaHCO3 (32 mM), HEPES (25 mM), and L-glutamine. The medium was supplemented with 1.76 g/L of glucose (Sigma-Aldrich, […], Belgium), […] of hypoxanthine (Sigma-Aldrich), 100 mg/L of gentamycin (Gibco, Fisher Scientific) and 10% human pooled serum (A+), as previously described. Solutions of pure products were prepared in DMSO at 10 mg/mL. As DMSO is recognized as toxic for parasites, the highest concentration of solvent to which they were exposed was 1%. Thus, primary solutions were diluted in a culture medium to reach 100 μg/mL in the first row of a 96-well plate. Therefore, each test sample was applied in a series of eight 2-fold dilutions and tested in triplicate. The assay was performed with 2% parasitaemia and 1% haematocrit. After 48 h of incubation, plates were frozen at -20 °C for 12 h and parasite growth was quantified according to the methods described by Makler et al.. Chloroquine (Sigma-Aldrich) was used as positive standards in all experiments, with initial concentrations at 100 ng/mL. Infected and uninfected red blood cells (RBC) were used as positive (100% growth) and negative controls (0% growth). Consequently, comparison between infected erythrocytes and samples allowed us to estimate the growth inhibition. IC50 values were calculated from linear regression.

[4] = chloroquine-sensitive strain 3D7/MRA-102, 48 h incubation, n = 3

Structure (SMILES)	IC50 [1]	logk [2]	IC50 [3, 4]	IC50 ([3]; 3D7, 48 h)
O=C(/C=C/c1ccc(Cl)cc1)Nc1ccccc1 [1a]	> 10 µM	0.4490	> 30 µM	
O=C(/C=C/c1ccc(Cl)cc1)Nc1ccccc1F [1b]	> 10 µM	0.6459	> 30 µM	
O=C(/C=C/c1ccc(Cl)cc1)Nc1cccc(F)c1 [1c]	> 10 µM	0.7859	6.9 ± 2.1 µM	
O=C(/C=C/c1ccc(Cl)cc1)Nc1ccc(F)cc1 [1d]	> 10 µM	0.7808	> 30 µM	
O=C(/C=C/c1ccc(Cl)cc1)Nc1ccccc1Cl [1e]	> 10 µM	0.5241	> 30 µM	
O=C(/C=C/c1ccc(Cl)cc1)Nc1cccc(Cl)c1 [1f]	> 10 µM	0.6192	12.7 ± 2.1 µM	
O=C(/C=C/c1ccc(Cl)cc1)Nc1ccc(Cl)cc1 [1g]	> 10 µM	0.5598	29.2 ± 2.4 µM	
O=C(/C=C/c1ccc(Cl)cc1)Nc1ccccc1C(F)(F)F [1h]	> 10 µM	0.5506	> 30 µM	
O=C(/C=C/c1ccc(Cl)cc1)Nc1cccc(C(F)(F)F)c1 [1i]	> 10 µM	0.8612	14.8 ± 3.1 µM	
O=C(/C=C/c1ccc(Cl)cc1)Nc1ccc(C(F)(F)F)cc1 [1j]	> 10 µM	0.9078	> 30 µM	
O=C(/C=C/c1ccc(Cl)cc1)Nc1ccc(F)cc1F [1k]	> 10 µM	0.5746	11 ± 2.1 µM	
O=C(/C=C/c1ccc(Cl)cc1)Nc1cc(F)cc(F)c1 [1l]	> 10 µM	0.8054	5.2 ± 0.9 µM	
O=C(/C=C/c1ccc(Cl)cc1)Nc1ccc(Cl)cc1Cl [1m]	> 10 µM	0.9665	4.6 ± 1.8 µM	
O=C(/C=C/c1ccc(Cl)cc1)Nc1cc(Cl)ccc1Cl [1n]	> 10 µM	0.9507	> 30 µM	
O=C(/C=C/c1ccc(Cl)cc1)Nc1cc(Cl)cc(Cl)c1 [1o]	> 10 µM	1.1899	4.4 ± 1.8 µM	
O=C(/C=C/c1ccc(Cl)cc1)Nc1cc(C(F)(F)F)cc(C(F)(F)F)c1 [1p, (2E)-N-[3,5-bis(trifluoromethyl)phenyl]-3-(4-chlorophenyl)prop-2-enamide]	> 10 µM	1.3064	2.5 ± 0.9 µM	
O=C(/C=C/c1ccc(Cl)cc1)Nc1ccc(OC(F)(F)F)cc1Br [1q]	> 10 µM	1.0278	24.8 ± 2.5 µM	
O=C(/C=C/c1ccc(Cl)c(Cl)c1)Nc1ccccc1 [2a]	> 10 µM	0.6199	21.4 ± 2.6 µM	

Structure (SMILES)	IC50 [1]	logk [2]	IC50 [3, 4]	IC50 ([3]; 3D7, 48 h)
O=C(/C=C/c1ccc(Cl)c(Cl)c1)Nc1ccccc1F [2b]	> 10 µM	0.7764	> 30 µM	
O=C(/C=C/c1ccc(Cl)c(Cl)c1)Nc1cccc(F)c1 [2c]	> 10 µM	0.9071	3.4 ± 1 µM	
O=C(/C=C/c1ccc(Cl)c(Cl)c1)Nc1ccc(F)cc1 [2d]	> 10 µM	0.9009	14.1 ± 3.1 µM	
O=C(/C=C/c1ccc(Cl)c(Cl)c1)Nc1ccccc1Cl [2e]	> 10 µM	0.6488	> 30 µM	
O=C(/C=C/c1ccc(Cl)c(Cl)c1)Nc1cccc(Cl)c1 [2f]	> 10 µM	0.7404	10.5 ± 2 µM	
O=C(/C=C/c1ccc(Cl)c(Cl)c1)Nc1ccc(Cl)cc1 [2g]	> 10 µM	0.6786	7.9 ± 1.7 µM	
O=C(/C=C/c1ccc(Cl)c(Cl)c1)Nc1ccccc1C(F)(F)F [2h]	> 10 µM	0.6836	> 30 µM	
O=C(/C=C/c1ccc(Cl)c(Cl)c1)Nc1cccc(C(F)(F)F)c1 [2i]	> 10 µM	0.9873	14.2 ± 2.3 µM	
O=C(/C=C/c1ccc(Cl)c(Cl)c1)Nc1ccc(C(F)(F)F)cc1 [2j]	> 10 µM	1.0364	16 ± 2.5 µM	
O=C(/C=C/c1ccc(Cl)c(Cl)c1)Nc1ccc(F)cc1F [2k, (2E)-3-(3,4-dichlorophenyl)-N-(2,4-difluoro-phenyl)prop-2-enamide]	> 10 µM	0.6989	1.9 ± 0.06 µM	
O=C(/C=C/c1ccc(Cl)c(Cl)c1)Nc1cc(F)cc(F)c1 [2l, (2E)-3-(3,4-dichlorophenyl)-N-(3,5-difluoro-phenyl)prop-2-enamide]	> 10 µM	0.9298	1.8 ± 0.08 µM	
O=C(/C=C/c1ccc(Cl)c(Cl)c1)Nc1ccc(Cl)cc1Cl [2m]	> 10 µM	1.0932	3.4 ± 0.9 µM	
O=C(/C=C/c1ccc(Cl)c(Cl)c1)Nc1cc(Cl)ccc1Cl [2n]	> 10 µM	1.0840	> 30 µM	
O=C(/C=C/c1ccc(Cl)c(Cl)c1)Nc1cc(Cl)cc(Cl)c1 [2o]	> 10 µM	1.3043	3.8 ± 1.1 µM	
O=C(/C=C/c1ccc(Cl)c(Cl)c1)Nc1cc(C(F)(F)F)cc(C(F)(F)F)c1 [2p, (2E)-N-[3,5-bis(trifluoromethyl)phenyl]-3-(3,4-dichloro-phenyl)prop-2-enamide]	> 10 µM	1.4731	1.6 ± 0.07 µM	
O=C(/C=C/c1ccc(Cl)c(Cl)c1)Nc1ccc(OC(F)(F)F)cc1Br [2q]	> 10 µM	1.2065	23 ± 2.7 µM	
CCN(CC)CCCC(C)Nc1ccnc2cc(Cl)ccc12 (stereo not shown) [CQ, chloroquine, reference compound]				0.5 ± 0.2 µM
